System: Pseudomonas aeruginosa
Test: Agar well diffusion assessment of emulsified tobramycin availability (effective tobramycin concentration)
Format: cell-based
Conditions: aqueous standard solution, 37° C., 24 hours
Description: The presence and availability of emulsified tobramycin was quantified via the commonly used agar well diffusion method of measuring antibiotic content. In this method, the surface of LB agar plates is inoculated with 500 μL of mid-log growth Pseudomonas aeruginosa in tryptic soy broth. Similar methods are disclosed in Omri et al. Pulmonary Retention of Free and Liposome-Encapsulated Tobramycin after Intratracheal Administration in Uninfected Rats and Rats Infected with Pseudomonas aeruginosa. Antimicrobial Agents and Chemotherapy. 1994, 38: 1090-1095. […] Following this evaluation, the effects of Vaq and Caq were assessed using emulsions with Cfs=2 mg/mL H2O of FSH-PEG, Vaq=0.5-2.5%, and Caq=40-200 mg/mL. […]
For each formulation evaluated, approximately 10 mL of emulsion was prepared in a 15-mL centrifuge tube and allowed to sit at room temperature without agitation for five minutes before sampling. […] Following incubation, circular inhibition zones produced by tobramycin that had diffused into the agar were imaged and measured. Interpolation from the inhibition zones of aqueous standard solutions was then used to determine effective tobramycin concentrations (i.e., the aqueous tobramycin concentration resulting in an identical inhibition area) for each emulsion evaluated. […] Three separate trials were performed for each emulsion formulation evaluated. […]

SMILES: NC[C@H]1O[C@H](O[C@H]2[C@H](O)[C@@H](O[C@H]3O[C@H](CO)[C@@H](O)[C@H](N)[C@H]3O)[C@H](N)C[C@@H]2N)[C@H](N)C[C@@H]1O [tobramycin]
- Aqueous tobramycin concentration producing the smallest measurable inhibition zone: 5 µg/mL
